Measured values published in patent US8999970B2, “Administration of an anti-obesity compound to individuals with renal impairment” (Arena Pharmaceuticals, Inc., priority 2010, dated 2015).
Where “and” joins values, the source holds several entries; their conditions need not be identical. Equal entries are not always repeated.

Assay: Clinical trial APD356-016: plasma and urine pharmacokinetics of lorcaserin, M1 and M5 after a 10 mg dose in subjects with renal impairment
Conditions: Severe Renal Impairment Not Receiving Dialysis; for Plasma Concentration of HSO3-APD356 Metabolite, Max: group Max; for Plasma Concentration of HSO3-APD356 Metabolite, Max / Plasma Concentration of HSO3-APD356 Metabolite, Mean / Plasma Concentration of HSO3-APD356 Metabolite, Median / Plasma Concentration of HSO3-APD356 Metabolite, Min: N 8; for Plasma Concentration of HSO3-APD356 Metabolite, Mean: group Mean; for Plasma Concentration of HSO3-APD356 Metabolite, Median: group Median; for Plasma Concentration of HSO3-APD356 Metabolite, Min: group Min; for Plasma Concentration of HSO3-APD356 Metabolite: individual subject
Description: The interaction of renal insufficiency with the pharmacokinetics, tolerability and safety of lorcaserin were evaluated in a formal PK study in subjects with renal impairment and in the populations studied in phase 2 and phase 3 clinical studies.
The pharmacokinetic properties of lorcaserin in subjects with varying degrees of renal impairment were evaluated in clinical trial APD356-016. At the time of study conduct and analysis, subjects were assigned to renal impairment groups based on creatinine clearance calculated using IDEAL body weight (Table 1). This calculation was used to avoid overestimation of creatinine clearance due to the excess body weight (overweight and obese subjects were enrolled in the trial). Summaries of pharmacokinetic properties by group assignment using creatinine clearance calculated using ACTUAL body weights are also provided in the sections that follow.
The FDA expects a reasonable margin between anticipated exposures and exposures that may produce toxicity. A reasonable margin can vary depending on the expected toxicity, but generally is an order of magnitude (10 times), but can sometimes be less for mild toxicity.
Table 13. Summary of Plasma Concentrations (ng/mL) of HSO3-APD356 Metabolite over Time by Group: Severe Renal Impairment Not Receiving Dialysis (see Table 13 next page)
Subject number 3140-505 was on dialysis and grouped in the end stage renal disease group.

## C[C@H]1CN(S(=O)(=O)O)CCc2ccc(Cl)cc21 [HSO3-APD356 Metabolite]
Day 1 0.5 h
  Plasma Concentration of HSO3-APD356 Metabolite, Max: 182 ng/mL
  Plasma Concentration of HSO3-APD356 Metabolite, Mean: 25.7 ng/mL
  Plasma Concentration of HSO3-APD356 Metabolite, Median: 1.33 ng/mL
  Plasma Concentration of HSO3-APD356 Metabolite, Min: 0.00 ng/mL
  Plasma Concentration of HSO3-APD356 Metabolite: 182 ng/mL and 2.66 ng/mL and 8.54 ng/mL and 0.00 ng/mL (2×) and 12.2 ng/mL
Day 1 1 h
  Plasma Concentration of HSO3-APD356 Metabolite, Max: 319 ng/mL
  Plasma Concentration of HSO3-APD356 Metabolite, Mean: 50.6 ng/mL
  Plasma Concentration of HSO3-APD356 Metabolite, Median: 12.6 ng/mL
  Plasma Concentration of HSO3-APD356 Metabolite, Min: 0.00 ng/mL
  Plasma Concentration of HSO3-APD356 Metabolite: 319 ng/mL and 22.8 ng/mL and 18.0 ng/mL and 0.00 ng/mL and 31.4 ng/mL and 4.30 ng/mL
Day 1 2 h
  Plasma Concentration of HSO3-APD356 Metabolite, Max: 489 ng/mL
  Plasma Concentration of HSO3-APD356 Metabolite, Mean: 83.2 ng/mL
  Plasma Concentration of HSO3-APD356 Metabolite, Median: 24.5 ng/mL
  Plasma Concentration of HSO3-APD356 Metabolite, Min: 6.08 ng/mL
  Plasma Concentration of HSO3-APD356 Metabolite: 489 ng/mL and 42.2 ng/mL and 25.1 ng/mL and 6.08 ng/mL and 53.2 ng/mL and 13.3 ng/mL
Day 1 3 h
  Plasma Concentration of HSO3-APD356 Metabolite, Max: 468 ng/mL
  Plasma Concentration of HSO3-APD356 Metabolite, Mean: 86.8 ng/mL
  Plasma Concentration of HSO3-APD356 Metabolite, Median: 27.5 ng/mL
  Plasma Concentration of HSO3-APD356 Metabolite, Min: 17.6 ng/mL
  Plasma Concentration of HSO3-APD356 Metabolite: 468 ng/mL and 52.4 ng/mL and 26.5 ng/mL and 17.6 ng/mL and 55.6 ng/mL and 20.9 ng/mL
Day 1 4 h
  Plasma Concentration of HSO3-APD356 Metabolite, Max: 542 ng/mL
  Plasma Concentration of HSO3-APD356 Metabolite, Mean: 99.5 ng/mL
  Plasma Concentration of HSO3-APD356 Metabolite, Median: 31.6 ng/mL
  Plasma Concentration of HSO3-APD356 Metabolite, Min: 25.4 ng/mL
  Plasma Concentration of HSO3-APD356 Metabolite: 542 ng/mL and 53.3 ng/mL and 28.2 ng/mL and 28.6 ng/mL and 55.1 ng/mL and 25.4 ng/mL
Day 1 6 h
  Plasma Concentration of HSO3-APD356 Metabolite, Max: 445 ng/mL
  Plasma Concentration of HSO3-APD356 Metabolite, Mean: 86.7 ng/mL
  Plasma Concentration of HSO3-APD356 Metabolite, Median: 32.8 ng/mL
  Plasma Concentration of HSO3-APD356 Metabolite, Min: 26.1 ng/mL
  Plasma Concentration of HSO3-APD356 Metabolite: 445 ng/mL and 51.9 ng/mL and 32.2 ng/mL and 29.8 ng/mL and 46.5 ng/mL and 26.1 ng/mL
Day 1 8 h
  Plasma Concentration of HSO3-APD356 Metabolite, Max: 473 ng/mL
  Plasma Concentration of HSO3-APD356 Metabolite, Mean: 88.9 ng/mL
  Plasma Concentration of HSO3-APD356 Metabolite, Median: 29.5 ng/mL
  Plasma Concentration of HSO3-APD356 Metabolite, Min: 25.8 ng/mL
  Plasma Concentration of HSO3-APD356 Metabolite: 473 ng/mL and 49.7 ng/mL and 27.8 ng/mL and 29.2 ng/mL and 50.4 ng/mL and 25.8 ng/mL
Day 1 12 h
  Plasma Concentration of HSO3-APD356 Metabolite, Max: 439 ng/mL
  Plasma Concentration of HSO3-APD356 Metabolite, Mean: 84.3 ng/mL
  Plasma Concentration of HSO3-APD356 Metabolite, Median: 28.9 ng/mL
  Plasma Concentration of HSO3-APD356 Metabolite, Min: 25.4 ng/mL
  Plasma Concentration of HSO3-APD356 Metabolite: 439 ng/mL and 45.9 ng/mL and 27.2 ng/mL and 27.3 ng/mL and 52.2 ng/mL and 25.4 ng/mL
Day 1 16 h
  Plasma Concentration of HSO3-APD356 Metabolite, Max: 410 ng/mL
  Plasma Concentration of HSO3-APD356 Metabolite, Mean: 76.8 ng/mL
  Plasma Concentration of HSO3-APD356 Metabolite, Median: 28.1 ng/mL
  Plasma Concentration of HSO3-APD356 Metabolite, Min: 18.0 ng/mL
  Plasma Concentration of HSO3-APD356 Metabolite: 410 ng/mL and 46.9 ng/mL and 28.1 ng/mL and 27.5 ng/mL and 18.0 ng/mL and 28.0 ng/mL and 30.6 ng/mL
Day 1 Predose
  Plasma Concentration of HSO3-APD356 Metabolite, Max: 9.00 ng/mL
  Plasma Concentration of HSO3-APD356 Metabolite, Mean: 1.13 ng/mL
  Plasma Concentration of HSO3-APD356 Metabolite, Median: 0.00 ng/mL
  Plasma Concentration of HSO3-APD356 Metabolite, Min: 0.00 ng/mL
  Plasma Concentration of HSO3-APD356 Metabolite: 0.00 ng/mL (6×) and 9.00 ng/mL
Day 2 24 h
  Plasma Concentration of HSO3-APD356 Metabolite, Max: 406 ng/mL
  Plasma Concentration of HSO3-APD356 Metabolite, Mean: 84.4 ng/mL
  Plasma Concentration of HSO3-APD356 Metabolite, Median: 32.5 ng/mL
  Plasma Concentration of HSO3-APD356 Metabolite, Min: 27.1 ng/mL
  Plasma Concentration of HSO3-APD356 Metabolite: 406 ng/mL and 51.1 ng/mL and 33.0 ng/mL and 31.9 ng/mL and 62.4 ng/mL and 31.6 ng/mL and 32.0 ng/mL
Day 2 36 h
  Plasma Concentration of HSO3-APD356 Metabolite, Max: 336 ng/mL
  Plasma Concentration of HSO3-APD356 Metabolite, Mean: 73.9 ng/mL
  Plasma Concentration of HSO3-APD356 Metabolite, Median: 35.5 ng/mL
  Plasma Concentration of HSO3-APD356 Metabolite, Min: 27.8 ng/mL
  Plasma Concentration of HSO3-APD356 Metabolite: 336 ng/mL and 45.5 ng/mL and 40.4 ng/mL and 30.6 ng/mL (2×) and 52.2 ng/mL and 28.4 ng/mL
Day 3 48 h
  Plasma Concentration of HSO3-APD356 Metabolite, Max: 292 ng/mL
  Plasma Concentration of HSO3-APD356 Metabolite, Mean: 68.1 ng/mL
  Plasma Concentration of HSO3-APD356 Metabolite, Median: 33.8 ng/mL
  Plasma Concentration of HSO3-APD356 Metabolite, Min: 25.8 ng/mL
  Plasma Concentration of HSO3-APD356 Metabolite: 292 ng/mL and 47.2 ng/mL and 34.3 ng/mL and 31.0 ng/mL and 54.2 ng/mL and 33.3 ng/mL
Day 4 72 h
  Plasma Concentration of HSO3-APD356 Metabolite, Max: 248 ng/mL
  Plasma Concentration of HSO3-APD356 Metabolite, Mean: 58.3 ng/mL
  Plasma Concentration of HSO3-APD356 Metabolite, Median: 31.6 ng/mL
  Plasma Concentration of HSO3-APD356 Metabolite, Min: 19.7 ng/mL
  Plasma Concentration of HSO3-APD356 Metabolite: 248 ng/mL and 40.2 ng/mL and 33.0 ng/mL and 27.9 ng/mL and 46.2 ng/mL and 30.2 ng/mL
Day 5 96 h
  Plasma Concentration of HSO3-APD356 Metabolite, Max: 225 ng/mL
  Plasma Concentration of HSO3-APD356 Metabolite, Mean: 53.8 ng/mL
  Plasma Concentration of HSO3-APD356 Metabolite, Median: 31.3 ng/mL
  Plasma Concentration of HSO3-APD356 Metabolite, Min: 15.1 ng/mL
  Plasma Concentration of HSO3-APD356 Metabolite: 225 ng/mL and 36.0 ng/mL and 30.2 ng/mL and 28.5 ng/mL and 43.8 ng/mL and 32.3 ng/mL
Day 6 120 h
  Plasma Concentration of HSO3-APD356 Metabolite, Max: 212 ng/mL
  Plasma Concentration of HSO3-APD356 Metabolite, Mean: 49.2 ng/mL
  Plasma Concentration of HSO3-APD356 Metabolite, Median: 27.5 ng/mL
  Plasma Concentration of HSO3-APD356 Metabolite, Min: 12.3 ng/mL
  Plasma Concentration of HSO3-APD356 Metabolite: 212 ng/mL and 30.4 ng/mL and 26.3 ng/mL and 25.2 ng/mL and 40.1 ng/mL and 28.6 ng/mL
